Assay in all cases: NCI anticancer screen, dose series, 48 h
Test [1] has as its system SNB-19 CNS.
Test [2] concerns HCC-2998 colon.
Test [3] relates to SF-539 CNS.
Test [4] deals with MDA-MB-231 breast.
For test [5], the system named is HOP-62 NSCLC.
Test [6] has as its system EKVX NSCLC.
Test [7] concerns HCT-116 colon.
Test [8] relates to MOLT-4 leukemia.
The subject of test [9] is MDA-MB-435.
In test [10] the test system is UO-31 renal.

Molecules are shown by their SMILES.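 Values below derive from 48-hour exposures of cells grown in 96-well plates, with endpoints linearly interpolated between the two concentrations bracketing the appropriate inhibition level. The concentration for 50% growth inhibition is given as GI50. TGI marks complete inhibition of growth.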 Where a SMILES comes first, the peptide text is derived from it. The star is where a group is joined. Boc = CC(C)(C)OC(=O)*; OSu = O=C1CCC(=O)N1O*

As to `Nc1nc(Cl)c(N)c(NCC2(CO)CC(OCc3ccccc3)C2)n1` (stereo not drawn), the TGI in [1], in test [2], in test [3], in test [4], in [5] and in [6] was more than 100 µM throughout. The TGI in test [7], in test [8], in test [9] and in test [10] was more than 100 µM in each case.
As to `O=C(Nc1cccc(-n2ccc3c(NC(=O)c4ccccc4)nccc32)c1)Nc1cc(C(F)(F)F)cc(C(F)(F)F)c1`, the GI50 was 2.32 µM in test [1]; 2.1 µM in [2]; 1.39 µM in [3]; 1.42 µM in test [4]; 3.75 µM in test [5]; 2.63 µM in test [6]. Moreover, the GI50 was 1.69 µM in test [7], 1.92 µM in test [8], 1.23 µM in test [9] and 2.4 µM in [10]. The TGI in test [1] is more than 50 µM; in test [2], more than 50 µM; in test [3], 4.76 µM; in test [4], 4.73 µM; in test [5] it was more than 50 µM; in test [6], more than 50 µM. Moreover, the TGI in test [7] was 6.31 µM; in test [8] it was 36 µM; in test [9], 3.21 µM; in [10], more than 50 µM.
In the case of `CN(CCn1cnc2c1c(=O)n(C)c(=O)n2C)C1CCCCC1`, the TGI in test [1], in test [2], in test [3], in test [4], in [5] and in test [6] was more than 100 µM in each case. In addition, the TGI in [7], in test [8], in [9] and in [10] was more than 100 µM each time.
Consider `C[n+]1c(-c2ccc(/C=N/NC(=N)N/N=C/c3ccc(-c4cn5cc(Cl)ccc5[n+]4C)cc3)cc2)cn2cc(Cl)ccc21`, for which the TGI in test [1], in test [2], in [3], in test [4], in [5] and in [6] was more than 100 µM throughout. Moreover, the TGI in [7], in [8], in test [9] and in test [10] was more than 100 µM throughout.
Turning to `CC[C@]12C=CCN3CC[C@@]4(c5cc(Br)c(OC)cc5N(C)[C@H]4[C@@](O)(C(=O)NN)[C@@H]1O)[C@@H]32`, the TGI in test [1] was more than 100 µM; in test [2], more than 100 µM; in [3], 69.3 µM; in test [4], more than 100 µM; in [5] it was more than 100 µM; in test [6], more than 100 µM. Also, the TGI in test [7], in [8], in test [9] and in test [10] was more than 100 µM in each case.
As to `CCCCC(C#N)(OP1(=O)OC(c2ccccc2)C(C)N1C)c1ccccc1` (stereo not drawn), the TGI in test [1] was found to be 36.4 µM; in test [2], 28.9 µM; in test [3], 31.2 µM; in [4], 30.2 µM; in test [5], 38.7 µM; in test [6], 39.8 µM. The TGI in test [7] worked out at 30.4 µM; in test [8] it was 35.9 µM; in test [9], 33.2 µM; in [10] it was 31.4 µM.
Take `Nc1ncnc2c1nnn2C1C=CC(COS(N)(=O)=O)C1` (stereo not drawn): the TGI in test [1] is 33.3 µM; in [2], 76.2 µM; in [3] it was 7.39 µM; in test [4] it was more than 100 µM; in test [5] it was more than 100 µM; in test [6] it was more than 100 µM. Also, the TGI in test [7] is 36.3 µM; in test [8] it was more than 100 µM; in test [9], 41.3 µM; in [10], 49 µM.
Regarding `O=C1CCC2(CC1CC(Sc1ccccc1)Sc1ccccc1)OCCO2` (stereo not drawn), the TGI in [1], in [2], in test [3], in test [4], in test [5] and in [6] was more than 100 µM throughout. Moreover, the TGI in [8] was 66.3 µM; in test [9] it was more than 100 µM; in test [10], more than 100 µM.
Regarding `Cc1[nH]c2c(c1C)S(=O)(=O)c1cc3ccccc3nc1N2`, the TGI in test [1] is 70.6 µM; in test [2], more than 100 µM; in test [3], 25.2 µM; in [4], 76.1 µM; in test [5] it was 39.8 µM; in test [6], more than 100 µM. Further, the TGI in [7] is more than 100 µM; in [8], more than 100 µM; in test [9] it was more than 100 µM; in [10], 56.9 µM.
Turning to `O=C1NC(SSC2=NNC3(C(=O)N2)c2ccccc2-c2ccccc23)=NNC12c1ccccc1-c1ccccc12`, the TGI in [1], in [2], in test [3], in test [4], in [5] and in test [6] was more than 10 µM throughout. Moreover, the TGI in test [7], in test [8], in [9] and in test [10] was more than 10 µM in each case.
Consider `CC(NC(=O)C(NC(=O)OC(C)(C)C)C(C)C)C(=O)NCC(=O)ON1C(=O)CCC1=O` (stereo not drawn) (Boc-Val-Ala-Gly-OSu; configuration not given here), for which the TGI in test [1], in [2], in [3], in test [4], in [5] and in test [6] was more than 100 µM each time. For the same compound, the TGI in [7], in test [8], in test [9] and in test [10] was more than 100 µM throughout.
As for `O=C(O)c1cc2ccccc2c(N=Nc2ccc(S(=O)(=O)Nc3nccs3)cc2)c1O`, the TGI in test [2], in test [3], in test [4], in test [5], in test [6] and in [7] was more than 100 µM each time. Moreover, the TGI in test [8], in [9] and in test [10] was more than 100 µM throughout.

The values are drawn from PubChem BioAssay (NCI).
